From publication PMC6272669, “Protein Tyrosine Phosphatase 1B Inhibitors from the Roots of Cudrania tricuspidata” (Molecules, 2015)

The molecules below were run against T1, PTP1B (human, recombinant) (Homo sapiens, UniProt P18031) (assay: PTP1B inhibitory activity assay (p-NPP hydrolysis)). Conditions: 1 mM p-NPP substrate, pH 6.0, 37.5 °C, 30 min; mean ± SD of triplicate experiments; read-out: PTP1B Inhibitory Effects (IC50 Values).
T1 construct: purchased ATGen Co., Ltd. (Gyeonggi-do, Korea)
T1 sequence (P18031 1-435): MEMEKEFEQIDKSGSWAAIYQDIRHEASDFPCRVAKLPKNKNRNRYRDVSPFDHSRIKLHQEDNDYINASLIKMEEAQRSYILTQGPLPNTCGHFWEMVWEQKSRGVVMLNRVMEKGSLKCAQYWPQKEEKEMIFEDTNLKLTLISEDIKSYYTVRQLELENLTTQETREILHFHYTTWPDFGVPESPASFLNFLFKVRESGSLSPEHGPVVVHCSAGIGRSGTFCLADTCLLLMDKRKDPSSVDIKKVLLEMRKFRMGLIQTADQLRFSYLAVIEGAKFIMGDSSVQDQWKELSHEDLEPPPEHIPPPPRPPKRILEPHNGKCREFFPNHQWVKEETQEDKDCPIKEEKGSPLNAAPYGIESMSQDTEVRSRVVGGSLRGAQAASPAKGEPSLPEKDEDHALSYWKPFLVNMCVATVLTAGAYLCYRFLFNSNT
Format: biochemical
Procedure: On the basis of these findings, we evaluated the inhibitory effects of the 16 isolated compounds on PTP1B activity. PTP1B enzyme (human, recombinant) was purchased from ATGen Co., Ltd. (Gyeonggi-do, Korea), and its activity was measured using p-nitrophenyl phosphate (p-NPP). The reaction mixture consisted of 50 mM Bis-Tris (pH 6.0), 2.0 mM EDTA, 5.0 mM dithiothreitol (DTT), PTP1B (0.04 μg), and 1.0 mM p-NPP, with or without test compounds. After incubation at 37.5 °C for 30 min, the reaction was stopped via the addition of 10 N NaOH. The production of p-nitrophenol (p-NP) was evaluated by measuring the absorbance at 405 nm. The non-enzymatic hydrolysis of 1.0 mM p-NPP was corrected by measuring the increase in absorbance at 405 nm in the absence of PTP1B enzyme.
PTP1B (human, recombinant) was purchased from ATGen Co., Ltd. (Gyeonggi-do, Korea). The enzyme activity was measured in a reaction mixture containing 1 mM p-NPP in 50 mM Bis-Tris (pH 6.0), 2.0 mM EDTA, and 5.0 mM dithiothreitol (DTT). The reaction mixture was placed in a 37.5 °C for 30 min, followed by termination of the reaction with the addition of 10 N NaOH. The amount of p-NP produced was estimated by measuring the increase in absorbance at 405 nm. The non-enzymatic hydrolysis of 1.0 mM p-NPP was corrected by measuring the increase in absorbance at 405 nm obtained in the absence of PTP1B enzyme. Inhibition kinetics studies were performed in the presence or absence of compounds 1 and 13 with different concentrations of p-NPP. Data were fitted by nonlinear regression analysis according to a Michaelis-Menten kinetic model using GraphPad Prism 5.01.
`C=CC(C)(C)c1c2c(c3oc4cc(O)c(O)cc4c(=O)c3c1O)C=CC(C)(C)O2` [Compound 1, cudratricusxanthone N] gave an IC50 of 2 ± 0.4 µM. `C=CC(C)(C)c1c(OC)cc2oc3cc(O)c(O)cc3c(=O)c2c1O` [Compound 2, 1,6,7-trihydroxy-2-(1,1-dimethyl-2-propenyl)-3-methoxyxanthone] showed an IC50 of 3 ± 0.6 µM. With `CC(C)=CCc1c(O)cc2c(c1O)C(=O)C[C@@H](c1cc3c(cc1O)OC(C)(C)C=C3)O2` [Compound 14, euchrestaflavanone C] the IC50 was 12.3 ± 2.2 µM. Work on `CC(C)=CCc1c(O)cc2oc(-c3ccc(O)cc3O)c(CC=C(C)C)c(=O)c2c1O` [Compound 15, cudraflavone C] yielded an IC50 of 9.4 ± 2.9 µM. In the case of `C=CC(C)(C)c1c(OC)c(CC=C(C)C)c2oc3cc(O)c(O)cc3c(=O)c2c1O` [Compound 7, cudracuspixanthone A], the IC50 is reported as 1.9 ± 0.4 µM. For `CC(C)=CCc1c(-c2ccc(O)cc2O)oc2c(CC=C(C)C)c(O)cc(O)c2c1=O` [Compound 16, kuwanon C], the IC50 was 13.6 ± 3.3 µM. Work on `CC(C)=CCc1cc([C@@H]2CC(=O)c3c(cc(O)c(CC=C(C)C)c3O)O2)c(O)cc1O` [Compound 13, cudraflavanone D] yielded an IC50 of 5.7 ± 1.5 µM. `C=CC(C)(C)c1c(O)c(CC=C(C)C)c2oc3cc(O)c(O)cc3c(=O)c2c1O` [Compound 6, macluraxanthone B] was tested, and the IC50 was 3.8 ± 0.5 µM. `C=CC(C)(C)c1c(O)cc(O)c2c(=O)c3cc(O)c(O)cc3oc12` [Compound 3, cudratricusxanthone L] was tested, and the IC50 was 3 ± 0.3 µM. For `CC(C)=CCc1c(O)c(O)cc2c(=O)c3c(O)c4c(cc3oc12)OC(C)C4(C)C` (stereo not drawn) [Compound 9, cudraxanthone M], the IC50 was 3.5 ± 0.7 µM. `C=CC(C)(C)c1c(O)cc2oc3c(CC=C(C)C)c(O)c(O)cc3c(=O)c2c1O` [Compound 5, cudraxanthone L] was tested, and the IC50 was 4.6 ± 0.8 µM. Molecule `C=CC(C)(C)c1c(O)cc(O)c2c(=O)c3c(CC=C(C)C)c(O)c(O)cc3oc12` [Compound 4, cudratricusxanthone A] has an IC50 of 4.3 ± 0.6 µM. Work on `CC(C)=CCc1c2c(c(O)c3c(=O)c4cc(O)c(O)cc4oc13)C(C)(C)C(C)O2` (stereo not drawn) [Compound 8] yielded an IC50 of 2.8 ± 0.6 µM.

Each molecule was assayed against T1, PTP1B (human, recombinant) (assay: Enzyme kinetic study of PTP1B inhibition (Lineweaver-Burk plots)). Conditions: Lineweaver-Burk plots: reduction in Vmax, no change in Km.
Format: biochemical
Procedure: To elucidate the characteristics of PTP1B inhibition by the prenylated xanthones and flavonoids, compounds 1 and 13 were selected for an enzyme kinetic study. The kinetic studies were conducted using different concentrations of compounds 1, 13, and p-NPP. The initial rate was determined on the basis of the rate of increase in absorbance at 405 nm. The Michaelis–Menten constant (Km) and maximal velocity (Vmax) of PTP1B were determined by Lineweaver–Burk Plot analysis for competitive inhibition and the intercept on the vertical axis for noncompetitive inhibition. […]
Figure 2 Lineweaver-Burk plots for inhibition of PTP1B-catalyzed hydrolysis of p-NPP by compounds 1 (A) and 13 (B). Data are expressed as mean initial velocity for triplicate experiments (n = 3) at each substrate concentration.
PTP1B (human, recombinant) was purchased from ATGen Co., Ltd. (Gyeonggi-do, Korea). The enzyme activity was measured in a reaction mixture containing 1 mM p-NPP in 50 mM Bis-Tris (pH 6.0), 2.0 mM EDTA, and 5.0 mM dithiothreitol (DTT). […] The amount of p-NP produced was estimated by measuring the increase in absorbance at 405 nm. The non-enzymatic hydrolysis of 1.0 mM p-NPP was corrected by measuring the increase in absorbance at 405 nm obtained in the absence of PTP1B enzyme. […]
`C=CC(C)(C)c1c2c(c3oc4cc(O)c(O)cc4c(=O)c3c1O)C=CC(C)(C)O2` [Compound 1, cudratricusxanthone N] was tested, and the “Mode of PTP1B inhibition” value was “noncompetitive”. In the case of `CC(C)=CCc1cc([C@@H]2CC(=O)c3c(cc(O)c(CC=C(C)C)c3O)O2)c(O)cc1O` [Compound 13, cudraflavanone D], the “Mode of PTP1B inhibition” value is reported as “noncompetitive”.
